The source made the active and inactive calls. How the calls were made is not given here.
Tested on: GENE-TOX genotoxicity assays, various organisms and cells
Test: GENE-TOX mutagenicity studies
Conditions: for call: Assay Type: In vivo carcinogenicity studies, Assay Code: CCG+L
[1] = Species/Cell Type: Bacillus subtilis (H17 vs M45), Assay Type: Rec-assay, spot test, DNA effects (bacterial DNA repair), Assay Code: REW-, Evaluation Type: Evaluation A (Pre-1980)
[2] = Species/Cell Type: Escherichia coli WP2 UVRA, Assay Type: Tryptophan reverse gene mutation, Assay Code: WPU+D, Dose Response: With dose response, Evaluation Type: Evaluation A (Pre-1980)
[3] = Species/Cell Type: Nonhuman, Evaluation Type: Evaluation A (Pre-1980)
[4] = Species/Cell Type: Salmonella typhimurium (one or more of the five standard strains: TA98, TA100, TA1535, TA1537, and TA1538), Assay Type: Histidine reverse gene mutation, Ames assay, Assay Code: SAL+, Evaluation Type: Evaluation A (Pre-1980)
[5] = Species/Cell Type: Nonhuman, Assay Type: Sister-chromatid exchange (SCE) in vitro, Assay Code: SC2+D, Dose Response: With dose response, Evaluation Type: Evaluation B (Post-1980)

Structure (SMILES): Nc1ncc(/C=C/c2ccc([N+](=O)[O-])o2)nn1
- mutagenic call [1]: inactive; negative
- mutagenic call (Species/Cell Type: Escherichia coli WP2, Assay Type: Tryptophan reverse gene mutation, Assay Code: WP2+, Evaluation Type: Evaluation A (Pre-1980)): active; positive
- mutagenic call [2]: active; positive

Structure (SMILES): C1=Cc2cc3cccc4ccc5ccc1c2c5c43
- call [3]: active; positive
- mutagenic call (Species/Cell Type: Salmonella typhimurium (one or more of the five standard strains: TA98, TA100, TA1535, TA1537, and TA1538), Assay Type: Histidine reverse gene mutation, Ames assay, Assay Code: SAL+*, Activation: With metabolic activation, Evaluation Type: Evaluation A (Pre-1980)): active; positive

Structure (SMILES): CC(S)C(=O)NCC(=O)O (centres undefined)
- mutagenic call (Species/Cell Type: Mammalian polychromatic erythrocytes, Assay Type: Micronucleus test, chromosome aberrations, Assay Code: MNTT, Evaluation Type: Evaluation B (Post-1980)): no conclusion

Structure (SMILES): C=[N+]=[N-]
- mutagenic call (Species/Cell Type: Neurospora crassa, Assay Type: Reverse gene mutation, Assay Code: NER+, Evaluation Type: Evaluation A (Pre-1980)): active; positive
- call [3]: active; positive
- mutagenic call (Species/Cell Type: Saccharomyces cerevisiae, Assay Type: Reverse gene mutation, Assay Code: YER+, Evaluation Type: Evaluation A (Pre-1980)): active; positive

Structure (SMILES): C=C(C)[C@@H]1CCC(C)=C[C@H]1c1c(O)cc(CCCCC)cc1O
- mutagenic call (Species/Cell Type: Fischer rat embryo (RLV/1706) cells, Assay Type: Cell transformation, viral enhanced, Assay Code: CTR-, Evaluation Type: Evaluation A (Pre-1980)): inactive; negative
- mutagenic call (Species/Cell Type: Human lymphocytes, Assay Type: Sister-chromatid exchange (SCE) in vivo, Assay Code: SCY+, Evaluation Type: Evaluation B (Post-1980)): active; positive
- mutagenic call (Species/Cell Type: Mammalian polychromatic erythrocytes, Assay Type: Micronucleus test, chromosome aberrations, Assay Code: MNT+, Evaluation Type: Evaluation B (Post-1980)): active; positive
- mutagenic call (Species/Cell Type: Mouse, Sex: Male, Assay Type: Sperm morphology, Assay Code: SPI-, Evaluation Type: Evaluation A (Pre-1980)): inactive; negative

Structure (SMILES): Cn1ccc(CO)c1CO
- mutagenic call (Species/Cell Type: Human lymphocytes, Assay Type: Sister-chromatid exchange (SCE) in vitro, Assay Code: SCL+D, Dose Response: With dose response, Evaluation Type: Evaluation B (Post-1980)): active; positive

Structure (SMILES): CCCCN(CCC(=O)O)N=O
- mutagenic call [4]: active; positive

Structure (SMILES): C=CCN(N=O)C(N)=O
- mutagenic call (Species/Cell Type: Arabidopsis species, Assay Type: Gene mutation, Assay Code: ARM+D, Dose Response: With dose response, Evaluation Type: Evaluation A (Pre-1980)): active; positive
- mutagenic call (Species/Cell Type: Saccharomyces cerevisiae, Assay Type: Mitotic recombination or gene conversion, Assay Code: YEC+, Evaluation Type: Evaluation A (Pre-1980)): active; positive

Structure (SMILES): COCC(O)Cn1ccnc1[N+](=O)[O-] (centres undefined)
- mutagenic call [2]: active; positive
- mutagenic call (Species/Cell Type: Mouse (C3H/10T1/2) cells, Assay Type: Cell transformation, Assay Code: CTH+D, Dose Response: With dose response, Evaluation Type: Evaluation A (Pre-1980)): active; positive
- mutagenic call [5]: active; positive
- mutagenic call (Species/Cell Type: Nonhuman, Assay Type: Sister-chromatid exchange (SCE) in vivo, Assay Code: SC3T, Evaluation Type: Evaluation B (Post-1980)): no conclusion
- mutagenic call [4]: active; positive

Structure (SMILES): COc1cc2c[n+](C)c3c4cc(OC)c(OC)cc4ccc3c2cc1OC
- mutagenic call (Species/Cell Type: Salmonella typhimurium (one or more of the five standard strains: TA98, TA100, TA1535, TA1537, and TA1538), Assay Type: Histidine reverse gene mutation, Ames assay, Assay Code: SALT, Evaluation Type: Evaluation A (Pre-1980)): no conclusion

Structure (SMILES): O=[N+]([O-])c1ccc(-c2nc(NCCO)c3ccccc3n2)s1
- mutagenic call [4]: active; positive

Structure (SMILES): ClCc1c2ccccc2cc2c1ccc1ccccc12
- mutagenic call [4]: active; positive

Structure (SMILES): O=NN1CCNC1=S
- mutagenic call (Species/Cell Type: Mammalian polychromatic erythrocytes, Assay Type: Micronucleus test, chromosome aberrations, Assay Code: MNTT, Evaluation Type: Evaluation A (Pre-1980)): no conclusion
- mutagenic call [5]: active; positive
- mutagenic call (Species/Cell Type: Rodents, Sex: Male, Assay Type: Dominant lethal test, Assay Code: DLT-, Evaluation Type: Evaluation A (Pre-1980)): inactive; negative

Structure (SMILES): O=[Se](=O)(O)O
- mutagenic call [1]: inactive; negative
- mutagenic call (Species/Cell Type: Human diploid fibroblasts, Assay Type: Unscheduled DNA synthesis (UDS) in vitro, DNA effects, Assay Code: UDH+, Evaluation Type: Evaluation A (Pre-1980)): active; positive
- mutagenic call (Species/Cell Type: Human lymphocytes, Assay Type: Sister-chromatid exchange (SCE) in vitro, Assay Code: SCLT, Evaluation Type: Evaluation B (Post-1980)): no conclusion
- mutagenic call (Species/Cell Type: Human, Assay Type: Sister-chromatid exchange (SCE) in vitro, Assay Code: SC1T, Evaluation Type: Evaluation B (Post-1980)): no conclusion
- mutagenic call (Species/Cell Type: Nonhuman, Assay Type: Sister-chromatid exchange (SCE) in vitro, Assay Code: SC2+*, Activation: With metabolic activation, Evaluation Type: Evaluation B (Post-1980)): active; positive
- mutagenic call [4]: active; positive

Reference: PubChem BioAssay AID1259408 (Genetic Toxicology Data Bank (GENE-TOX), 2018)
